Measured values: patent publication US8691753B2 (priority 2009, dated 2014)
Like-named read-outs stand apart in the source and are kept apart here.

How the values were obtained:
Format in all cases: biochemical
MMP-1h = MMP-1h (Homo sapiens (Human), UniProt P03956); test: Inhibition constant (Ki) on MMP-1h; conditions: read-out: Ki MMP-1h; human MMP-1
Description: (§1) The inhibition constant Ki of these compounds has been determined according to the protocol described by Devel et al, 2006, J. Biol. Chem. (7).
(§2) In this table I and also in table II below, “h” corresponds to human. All of the compounds have therefore been evaluated on human MMPs.

MMP-2h = MMP-2h (Homo sapiens (Human), UniProt P08253); test: Inhibition constant (Ki) on MMP-2h; conditions: human MMP-2
MMP-2h, sequence (P08253 110-660): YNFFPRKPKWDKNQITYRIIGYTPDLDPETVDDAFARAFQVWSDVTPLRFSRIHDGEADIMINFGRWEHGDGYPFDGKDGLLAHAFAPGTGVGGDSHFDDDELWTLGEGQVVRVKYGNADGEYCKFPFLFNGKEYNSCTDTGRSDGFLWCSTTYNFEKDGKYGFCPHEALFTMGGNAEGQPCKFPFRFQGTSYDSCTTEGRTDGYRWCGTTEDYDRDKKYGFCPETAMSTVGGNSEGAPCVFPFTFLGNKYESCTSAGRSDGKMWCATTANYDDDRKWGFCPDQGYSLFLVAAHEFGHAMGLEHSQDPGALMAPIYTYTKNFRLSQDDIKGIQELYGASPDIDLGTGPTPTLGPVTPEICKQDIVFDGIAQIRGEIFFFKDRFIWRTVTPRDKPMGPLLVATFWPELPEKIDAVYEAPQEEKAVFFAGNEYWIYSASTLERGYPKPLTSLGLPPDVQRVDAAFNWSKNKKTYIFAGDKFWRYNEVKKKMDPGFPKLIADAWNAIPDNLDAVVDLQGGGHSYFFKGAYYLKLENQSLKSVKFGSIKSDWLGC
Summary of the method: (§3)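 Compounds are evaluated on human MMPs, and Ki is derived as set out in an earlier publication.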

MMP-3h = MMP-3h (Homo sapiens (Human), UniProt P08254); test: Inhibition constant (Ki) on MMP-3h; conditions: human MMP-3
MMP-3h, sequence (P08254 100-477): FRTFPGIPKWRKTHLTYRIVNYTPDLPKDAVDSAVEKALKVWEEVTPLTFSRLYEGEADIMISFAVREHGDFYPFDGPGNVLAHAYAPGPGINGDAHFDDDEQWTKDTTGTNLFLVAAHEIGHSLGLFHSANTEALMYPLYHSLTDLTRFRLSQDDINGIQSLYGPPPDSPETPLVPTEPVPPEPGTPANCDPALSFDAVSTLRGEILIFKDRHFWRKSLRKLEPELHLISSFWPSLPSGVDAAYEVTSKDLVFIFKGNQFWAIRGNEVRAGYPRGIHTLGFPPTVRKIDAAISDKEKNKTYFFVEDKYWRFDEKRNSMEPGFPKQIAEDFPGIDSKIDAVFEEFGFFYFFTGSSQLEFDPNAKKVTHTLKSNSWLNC
Summary of the method: as §3

MMP-7h = MMP-7h (Homo sapiens (Human), UniProt P09237); test: Inhibition constant (Ki) on MMP-7h; conditions: read-out: Ki MMP-7h; human MMP-7
MMP-7h, sequence (P09237 95-267): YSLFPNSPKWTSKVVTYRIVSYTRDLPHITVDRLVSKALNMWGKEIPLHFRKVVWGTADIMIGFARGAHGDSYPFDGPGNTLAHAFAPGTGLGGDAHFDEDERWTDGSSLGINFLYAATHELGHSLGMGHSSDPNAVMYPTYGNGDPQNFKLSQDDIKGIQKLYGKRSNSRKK
Description: as §1, §2

MMP-9h = MMP-9h (Homo sapiens (Human), UniProt P14780); test: Inhibition constant (Ki) on MMP-9h; conditions: human MMP-9
MMP-9h, sequence (P14780 94-707): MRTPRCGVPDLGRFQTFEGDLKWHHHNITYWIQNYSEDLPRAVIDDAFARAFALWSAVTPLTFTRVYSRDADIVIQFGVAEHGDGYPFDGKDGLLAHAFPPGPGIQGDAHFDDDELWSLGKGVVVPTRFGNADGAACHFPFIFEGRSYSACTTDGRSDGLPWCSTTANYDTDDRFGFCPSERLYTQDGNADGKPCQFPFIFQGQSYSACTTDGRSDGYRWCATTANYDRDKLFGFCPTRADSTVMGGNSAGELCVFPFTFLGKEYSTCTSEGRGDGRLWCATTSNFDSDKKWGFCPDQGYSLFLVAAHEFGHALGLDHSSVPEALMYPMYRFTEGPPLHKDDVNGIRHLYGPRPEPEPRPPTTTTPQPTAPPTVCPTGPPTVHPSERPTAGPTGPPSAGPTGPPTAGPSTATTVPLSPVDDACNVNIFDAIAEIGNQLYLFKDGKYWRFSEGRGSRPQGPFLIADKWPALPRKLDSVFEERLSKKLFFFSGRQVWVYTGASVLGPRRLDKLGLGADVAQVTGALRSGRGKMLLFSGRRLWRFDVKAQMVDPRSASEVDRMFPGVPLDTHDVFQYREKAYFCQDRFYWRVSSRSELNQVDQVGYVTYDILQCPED
Summary of the method: as §3

MMP-10h = MMP-10h (Homo sapiens (Human), UniProt P09238); test: Inhibition constant (Ki) on MMP-10h; conditions: human MMP-10
MMP-10h, sequence (P09238 99-476): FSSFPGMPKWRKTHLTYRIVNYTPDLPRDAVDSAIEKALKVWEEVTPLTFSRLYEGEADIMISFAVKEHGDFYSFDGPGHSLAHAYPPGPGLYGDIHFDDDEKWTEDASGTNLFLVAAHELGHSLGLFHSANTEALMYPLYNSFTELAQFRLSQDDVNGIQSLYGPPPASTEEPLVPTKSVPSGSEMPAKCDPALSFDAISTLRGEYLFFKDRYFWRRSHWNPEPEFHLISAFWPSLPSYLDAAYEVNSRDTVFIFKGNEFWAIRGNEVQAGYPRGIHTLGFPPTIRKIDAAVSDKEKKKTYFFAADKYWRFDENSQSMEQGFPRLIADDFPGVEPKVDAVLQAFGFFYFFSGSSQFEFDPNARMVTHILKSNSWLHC

MMP-12h = MMP-12h (Homo sapiens (Human), UniProt P39900); test: Inhibition constant (Ki) on MMP-12h; conditions: human MMP-12
MMP-12h, sequence (P39900 106-470): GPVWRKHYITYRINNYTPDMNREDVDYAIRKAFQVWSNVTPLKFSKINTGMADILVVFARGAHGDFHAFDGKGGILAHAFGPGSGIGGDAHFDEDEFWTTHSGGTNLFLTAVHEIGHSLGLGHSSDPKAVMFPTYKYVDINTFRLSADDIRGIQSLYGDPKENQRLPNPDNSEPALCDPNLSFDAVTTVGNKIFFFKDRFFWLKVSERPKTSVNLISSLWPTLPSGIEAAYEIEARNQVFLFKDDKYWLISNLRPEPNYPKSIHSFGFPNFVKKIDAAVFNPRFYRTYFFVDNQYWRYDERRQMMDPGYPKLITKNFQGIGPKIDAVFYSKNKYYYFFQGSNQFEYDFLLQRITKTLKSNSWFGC

MMP-13h = MMP-13h (Homo sapiens (Human), UniProt P45452); test: Inhibition constant (Ki) on MMP-13h; conditions: human MMP-13
Summary of the method: as §3

MMP-14h = MMP-14h (Homo sapiens (Human), UniProt P50281); test: Inhibition constant (Ki) on MMP-14h; conditions: human MMP-14
Summary of the method: as §3

MMP-8h = MMP-8h (Homo sapiens (Human), UniProt P22894); test: Inhibition constant (Ki) on MMP-8h; conditions: human MMP-8
MMP-8h, sequence (P22894 101-467): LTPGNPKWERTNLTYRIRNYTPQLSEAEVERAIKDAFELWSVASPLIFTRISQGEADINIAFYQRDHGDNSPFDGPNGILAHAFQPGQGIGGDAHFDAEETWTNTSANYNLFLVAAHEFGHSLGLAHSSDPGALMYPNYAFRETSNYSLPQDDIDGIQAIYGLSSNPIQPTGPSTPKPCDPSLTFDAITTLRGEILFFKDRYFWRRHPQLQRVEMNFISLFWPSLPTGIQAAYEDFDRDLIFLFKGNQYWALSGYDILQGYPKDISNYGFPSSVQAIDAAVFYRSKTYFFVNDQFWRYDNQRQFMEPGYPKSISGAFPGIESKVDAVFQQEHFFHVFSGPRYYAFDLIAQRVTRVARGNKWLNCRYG

MMP-1h, sequence (P03956 100-469): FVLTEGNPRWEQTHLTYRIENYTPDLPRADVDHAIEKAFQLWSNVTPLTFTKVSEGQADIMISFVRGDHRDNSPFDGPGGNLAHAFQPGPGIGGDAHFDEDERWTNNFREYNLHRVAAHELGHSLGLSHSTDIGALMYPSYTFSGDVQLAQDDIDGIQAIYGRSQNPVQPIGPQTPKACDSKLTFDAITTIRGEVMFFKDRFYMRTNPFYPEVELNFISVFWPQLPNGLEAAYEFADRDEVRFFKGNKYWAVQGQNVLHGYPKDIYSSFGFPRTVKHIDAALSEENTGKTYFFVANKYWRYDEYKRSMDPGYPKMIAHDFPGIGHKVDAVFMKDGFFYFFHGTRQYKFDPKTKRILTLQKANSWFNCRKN

Row | Compound | Ki (MMP-1h) [µM] | Ki (MMP-2h; read-out: Ki MMP-2h) [µM] | Ki (MMP-3h; read-out: Ki MMP-3h) [µM] | Ki (MMP-7h) [µM] | Ki (MMP-9h; read-out: Ki MMP-9h) [µM] | Ki (MMP-10h; read-out: Ki MMP-10h) [µM] | Ki (MMP-12h; read-out: Ki MMP-12h) [µM] | Ki (MMP-13h; read-out: Ki MMP-13h) [µM] | Ki (MMP-14h; read-out: Ki MMP-14h) [µM] | Ki (MMP-8h; read-out: Ki MMP-8h) [µM] | Ki (MMP-2h) [µM] | Ki (MMP-3h) [µM] | Ki (MMP-8h) [µM] | Ki (MMP-9h) [µM] | Ki (MMP-10h) [µM] | Ki (MMP-12h) [µM] | Ki (MMP-13h) [µM] | Ki (MMP-14h) [µM]
1 | NC(=O)[C@H](CCC(=O)O)NC(=O)CCc1ccc(-c2cc(-c3ccccc3)cs2)cc1 [Compound 105, (S)-5-amino-5-oxo-4-(3-(4-(4-phenylthiophen-2-yl)phenyl)propanamido)pentanoic acid] | > 10 | 0.377 | > 1 | > 10 | > 1 | > 1 | 0.00365 | 0.603 | > 1 | – | – | – | – | – | – | – | – | –
2 | NC(=O)[C@H](CCC(=O)O)NC(=O)[C@H](CCC(=O)O)NC(=O)CCc1cc(-c2ccccc2)no1 [Compound 14, (S)-5-amino-4-((S)-4-carboxy-2-(3-(3-phenylisoxazol-5-yl)propanamido)butanamido)-5-oxopentanoic acid] | > 10 | 0.756 | > 10 | > 10 | > 1 | > 1 | – | > 1 | > 1 | 0.112 | – | – | – | – | – | – | – | –
3 | NC(=O)[C@H](CCC(=O)O)NC(=O)[C@H](CO)NC(=O)CCc1ccc(-c2ccc(-c3ccccc3)cc2)cc1 [Compound 78, (S)-5-amino-4-((S)-3-hydroxy-2-(3-(4′-phenylbiphenyl-4-yl)propanamido)propanamido)-5-oxopentanoic acid] | – | 0.729 | 0.116 | – | > 5 | > 5 | 0.206 | 0.367 | > 1 | > 1 | – | – | – | – | – | – | – | –
4 | NC(=O)[C@H](CCCC(=O)O)NC(=O)[C@H](CCC(=O)O)NC(=O)CCc1cc(-c2ccc(-c3cccc(Cl)c3)cc2)no1 [Compound 12, (S)-6-amino-5-((S)-4-carboxy-2-(3-(3-(3′-chlorobiphenyl-4-yl)isoxazol-5-yl)propanamido)butanamido)-6-oxohexanoic acid] | – | 0.15 | 0.129 | – | > 1 | 0.051 | 0.0082 | 0.052 | > 5 | 0.452 | – | – | – | – | – | – | – | –
5 | NC(=O)[C@@H](CCC(=O)O)NC(=O)[C@@H](CCC(=O)O)NC(=O)CCc1cc(-c2ccc(-c3cccc(Cl)c3)cc2)no1 [Compound 7, (R)-5-amino-4-((R)-4-carboxy-2-(3-(3-(3′-chlorobiphenyl-4-yl)isoxazol-5-yl)propanamido)butanamido)-5-oxopentanoic acid] | – | 0.538 | 0.897 | – | > 5 | 0.111 | 0.268 | 0.114 | > 10 | > 1 | – | – | – | – | – | – | – | –
6 | NC(=O)[C@H](CO)NC(=O)[C@H](CCC(=O)O)NC(=O)CCc1ccc(-c2ccccc2)cc1 [Compound 49, (S)-5-((S)-1-amino-3-hydroxy-1-oxopropan-2-ylamino)-4-(3-(biphenyl-4-yl)propanamido)-5-oxopentanoic acid] | – | 0.79 | > 5 | – | > 1 | > 1 | 0.041 | > 1 | > 1 | 0.204 | – | – | – | – | – | – | – | –
7 | NC(=O)[C@H](CCC(=O)O)NC(=O)[C@H](CC(=O)O)NC(=O)CCc1cc(-c2ccc(-c3cccc(Cl)c3)cc2)no1 [Compound 9, (S)-5-amino-4-((S)-3-carboxy-2-(3-(3-(3′-chlorobiphenyl-4-yl)isoxazol-5-yl)propanamido)propanamido)-5-oxopentanoic acid] | – | 0.091 | 0.381 | – | > 1 | 0.52 | 0.064 | 0.035 | > 5 | 0.899 | – | – | – | – | – | – | – | –
8 | NC(=O)[C@H](CCC(=O)O)NC(=O)[C@H](Cc1ccc(O)cc1)NC(=O)CCc1ccc(-c2ccc(-c3ccccc3)cc2)cc1 [Compound 75, (S)-5-amino-4-((S)-3-(4-hydroxyphenyl)-2-(3-(4′-phenylbiphenyl-4-yl)propanamido)propanamido)-5-oxopentanoic acid] | – | > 1 | 0.252 | – | > 10 | > 1 | 0.122 | 0.232 | > 10 | > 5 | – | – | – | – | – | – | – | –
9 | CC(C)C[C@H](NC(=O)[C@H](CCC(=O)O)NC(=O)CCc1ccc(-c2cccs2)cc1)C(N)=O [Compound 88, (S)-5-((S)-1-amino-4-methyl-1-oxopentan-2-ylamino)-5-oxo-4-(3-(4-(thiophen-2-yl)phenyl)propanamido)pentanoic acid] | – | 0.298 | > 10 | – | > 1 | > 1 | 0.032 | > 1 | > 1 | 0.073 | – | – | – | – | – | – | – | –
10 | C[C@H](NC(=O)[C@H](CCC(=O)O)NC(=O)CCc1ccc(-c2ccc(-c3ccccc3)cc2)cc1)C(N)=O [Compound 66, (S)-5-((S)-1-amino-1-oxopropan-2-ylamino)-4-(3-(4′-phenylbiphenyl-4-yl)propanamido)-5-oxopentanoic acid] | – | 0.049 | 0.238 | – | > 10 | 0.13 | 0.0022 | 0.0164 | > 10 | 0.532 | – | – | – | – | – | – | – | –
11 | O=C(O)CC[C@H](NC(=O)CCc1ccc(-c2cccs2)cc1)C(=O)Nc1cccc(CC(=O)O)c1 [Compound 90, (S)-5-(3-(carboxymethyl)phenylamino)-5-oxo-4-(3-(4-(thiophen-2-yl)phenyl)propanamido)pentanoic acid] | – | 0.116 | > 1 | – | 0.284 | 0.143 | 0.008 | 0.366 | 0.43 | 0.018 | – | – | – | – | – | – | – | –
12 | C[C@H](NC(=O)[C@H](CCC(=O)O)NC(=O)CCc1cc(-c2ccc(-c3ccccc3)cc2)no1)C(N)=O [Compound 23, (S)-5-((S)-1-amino-1-oxopropan-2-ylamino)-4-(3-(3-(biphenyl-4-yl)isoxazol-5-yl)propanamido)-5-oxopentanoic acid] | – | 0.078 | 0.46 | – | > 1 | 0.276 | 0.0112 | 0.08 | > 1 | 0.351 | – | – | – | – | – | – | – | –
13 | NC(=O)[C@H](CCC(=O)O)NC(=O)[C@H](CCC(=O)O)NC(=O)CCc1ccc(-c2cccc(C(=O)O)c2)cc1 [Compound 56, 4′-(3-((S)-1-((S)-1-amino-4-carboxy-1-oxobutan-2-ylamino)-4-carboxy-1-oxobutan-2-ylamino)-3-oxopropyl)biphenyl-3-carboxylic acid] | – | > 5 | > 10 | – | > 1 | > 10 | 0.091 | > 5 | > 10 | > 1 | – | – | – | – | – | – | – | –
14 | NCCCC[C@H](NC(=O)[C@H](CCC(=O)O)NC(=O)CCc1ccc(-c2ccc(-c3ccccc3)cc2)cc1)C(N)=O [Compound 63, (S)-5-((S)-1,6-diamino-1-oxohexan-2-ylamino)-4-(3-(4′-phenylbiphenyl-4-yl)propanamido)-5-oxopentanoic acid] | – | 0.11 | > 1 | – | > 1 | 0.447 | 0.0143 | 0.055 | > 1 | 0.621 | – | – | – | – | – | – | – | –
15 | NC(=O)[C@H](Cc1c[nH]cn1)NC(=O)[C@H](CCC(=O)O)NC(=O)CCc1ccc(-c2ccccc2)cc1 [Compound 48, (S)-5-((S)-1-amino-3-(1H-imidazol-4-yl)-1-oxopropan-2-ylamino)-4-(3-(biphenyl-4-yl)propanamido)-5-oxopentanoic acid] | – | 0.847 | > 10 | – | > 5 | > 1 | 0.075 | > 1 | > 10 | 0.339 | – | – | – | – | – | – | – | –
16 | NC(=O)CC[C@H](NC(=O)[C@H](CCC(=O)O)NC(=O)CCc1ccc(-c2ccccc2)cc1)C(N)=O [Compound 42, (S)-4-(3-(biphenyl-4-yl)propanamido)-5-((S)-1,5-diamino-1,5-dioxopentan-2-ylamino)-5-oxopentanoic acid] | – | – | – | – | – | – | – | – | – | – | 0.448 | > 5 | 0.285 | > 1 | > 1 | 0.048 | 0.884 | > 1
17 | NC(=O)[C@H](CCC(=O)O)NC(=O)[C@H](CCC(=O)O)NC(=O)CCc1cc(-c2ccc(-c3ccccc3)cc2)no1 [Compound 16, (S)-5-amino-4-((S)-2-(3-(3-(biphenyl-4-yl)isoxazol-5-yl)propanamido)-4-carboxybutanamido)-5-oxopentanoic acid] | – | – | – | – | – | – | – | – | – | – | 0.083 | 0.078 | 0.383 | > 1 | 0.114 | 0.0034 | 0.06 | > 1
18 | NC(=O)CC[C@H](NC(=O)[C@H](CCC(N)=O)NC(=O)CCc1ccc(-c2ccccc2)cc1)C(N)=O [Compound 43, (S)-2-(3-(biphenyl-4-yl)propanamido)-N^1-((S)-1,5-diamino-1,5-dioxopentan-2-yl)pentanediamide] | – | 0.319 | > 1 | – | > 1 | > 5 | 0.306 | 0.259 | > 5 | 0.657 | – | – | – | – | – | – | – | –
